Source: PMC4552634, “A New Set of Chemical Starting Points with Plasmodium falciparum Transmission-Blocking Potential for Antimalarial Drug Discovery” (PLoS ONE, 2015)
Like-named read-outs stand apart in the source and are kept apart here.

How the values were obtained:
[1] = tested on: P. falciparum stage V gametocytes; assay: Gametocytocidal ATP bioluminescence assay (single point 5 μM and 1 μM, dose-response); type: cell-based, Plasmodium falciparum; conditions: for Ratio IC50 HepG2/IC50 P. falciparum: IC50 HepG2 divided by IC50 P. falciparum gametocytes
Method: Purified stage IV-V gametocytes were obtained as previously described [10]. Single point ATP bioluminescence assay and dose–response of positive hits was determined in accordance with the previously published protocol [10].

[2] = tested on: P. falciparum asexual stages; conditions: cited from earlier work
HepG2 cells = assay: Cytotoxicity in HepG2 cells (intracellular ATP, ATPlite, 48 h); type: cell-based, human; conditions: IC50 HepG2 divided by IC50 P. falciparum gametocytes
[3] = as above; type: cell-based, human; conditions: human, HepG2 cells
[4] = tested on: P. falciparum stage V gametocytes; assay: microbe, parasite or virus in culture; design: BacTiter-Glo ATP luminescence viability of purified stage V gametocytes in 384-well plates, per cent inhibition versus DMSO; conditions: Plasmodium falciparum, 48 h, read-out: % Inhibition
[5] = Plasmodium falciparum, P. falciparum gametocytes, average, read-out: IC50 Pf Gametocytes average, IC50 (µM) average
[6] = P. falciparum asexual stages, TCAMS data, read-out: IC50 (µM) Pf asexual stages
[7] = asexual stages, TCAMS data, read-out: IC50 asexual
[8] = IC50 per ratio column head, unit inferred, read-out: Cytotoxicity in HepG2
[9] = sexual stages (gametocytes), dose-response, read-out: IC50 sexual
[10] = HepG2, 48 h exposure, intracellular ATP, read-out: IC50 (μM) Cytotoxicity HepG2
[11] = IC50 per ratio column head, unit inferred
[12] = Plasmodium falciparum, sexual stages (gametocytes), dose-response, read-out: IC50 sexual

Compound	Ratio IC50 HepG2/IC50 P. falciparum [1]	IC50 [1, 5] [µM]	IC50 [2, 6] [µM]	IC50 [2, 7] [µM]	Ratio IC50 HepG2/IC50 P. falciparum (HepG2 cells)	IC50 at 48 h [3, 8] [µM]	IC50 [1, 9] [µM]	IC50 at 48 h [3, 10] [µM]	IC50 [3, 11] [µM]	IC50 [1, 12] [µM]	IC50 ([1]; Plasmodium falciparum, gametocytes (GC), value as repeated in the Clusters sheet, read-out: IC50 GC) [µM]	IC50 ([1]; Plasmodium falciparum, P. falciparum gametocytes, dose-response, average, read-out: IC50 Pf Gametocytes average IC50 (µM) average) [µM]	inhibition at 5 µM [4] [%]	IC50 at 48 h ([3]; read-out: Cytotoxicity in HepG2 IC50 (µM) Malaria DPU) [µM]	IC50 ([2]; as previously determined for TCAMS, read-out: IC50 (μM) Pf Asexual stages) [µM]
Cc1sc2ncnc(Sc3nnc(N)s3)c2c1C [TCMDC-124542]	>83	0.3	0.4	0.399	>83	> 25	–	–	–	–	–	–	–	–	–
CC(C)CNCc1cccc(-c2cccc(CNCCCN3CCN(C)CC3)c2)c1 [TCMDC-140483]	>16	1.56	–	1.18	>16	> 25	1.56	–	–	–	–	–	–	–	–
CCN(CC)C(=NC(=N)NCc1ccc(Cl)cc1)NCCCCCCNC(=NC(=N)NCc1ccc(Cl)cc1)N(CC)CC [TCMDC-131817]	>32	0.79	–	0.231	>32	> 25	–	–	–	–	–	–	–	–	–
COc1cc2c(c(Cl)c1OC)CCN(C(=O)C(F)(F)F)CC2c1ccccc1 (centres unmarked) [TCMDC-132071]	>13	1.95	0.44	0.441	>13	> 25	–	–	–	–	–	–	–	–	–
CN1CCN(CCCN(Cc2ccc(-c3cccc(CNC4CCCC4)c3)cc2)C(=O)Nc2ccccc2)CC1 [TCMDC-140605]	81	0.18	–	1.12	81	14.3	0.177	–	–	–	–	–	–	–	–
CC(C)CNCc1cccc(-c2cccc(CN(CCN(C)C)C(=O)Nc3ccccc3)c2)c1 [TCMDC-140592]	24	0.66	–	0.795	24	15.8	–	–	–	–	–	–	–	–	–
Oc1c(C(Nc2nc3ccccc3s2)c2ccc(OC(F)F)cc2)ccc2cccnc12 (centres unmarked) [TCMDC-124379]	55	0.44	–	0.571	55	24.1	–	–	–	–	–	–	–	–	–
FC(F)(F)c1ccc2[nH]c(-c3ccc(-c4cccc(CNCCN5CCNCC5)c4)cc3)nc2c1 [TCMDC-132864]	16	1.08	1.03	1.03	16	17.5	–	18	–	–	–	–	–	–	–
Cc1cccc2nc(-c3ccc(-c4ccc(CNCc5ccc(CN)cc5)cc4)s3)[nH]c12 [TCMDC-132809]	28	0.86	–	0.442	28	24	0.855	–	–	–	–	–	–	–	–
CN1c2ccc([N+](=O)[O-])cc2C(C)(C)C12C=Cc1cc(Br)cc([N+](=O)[O-])c1O2 (centres unmarked) [TCMDC-124178]	>23	1.09	–	0.785	>23	–	1.09	–	> 25	–	–	–	–	–	–
NCc1ccc(CNCc2cccc(-c3ccc(-c4nc5cc(C(F)(F)F)ccc5[nH]4)cc3)c2)cc1 [TCMDC-132811]	28	0.86	–	0.261	28	24.3	0.855	–	–	–	–	–	–	–	–
N=C(N=C(NCCCCCCNC(=NC(=N)NCc1ccc(Cl)c(Cl)c1)N1CCCCC1)N1CCCCC1)NCc1ccc(Cl)c(Cl)c1 [TCMDC-131816]	>68	0.37	–	0.567	>68	> 25	0.365	–	–	–	–	–	–	–	–
CCN(CC)C(=NC(=N)NCCCCCCNC(=N)N=C(Nc1ccc(Cl)cc1)N(CC)CC)Nc1ccc(Cl)cc1 [TCMDC-131807]	>68	0.37	–	0.927	>68	> 25	0.365	–	–	–	–	–	–	–	–
CN1CCN(CCCNCc2cccc(-c3ccc(CNCCc4ccccc4)cc3)c2)CC1 [TCMDC-140643]	44	0.41	–	0.781	44	18.2	0.413	–	–	–	–	–	–	–	–
COc1ccc2nc3cc(Cl)ccc3c(NCCCCCCNc3c4ccc(Cl)cc4nc4ccc(OC)cc34)c2c1 [TCMDC-137503]	>500	0.05	–	0.661	>500	> 25	–	–	–	–	–	–	–	–	–
CC(C)(C)c1ccc(CN2CCC(CNC(=O)c3cc(-c4cccc(Cl)c4)cs3)C2)cc1 (centres unmarked) [TCMDC-134446]	19	0.61	1.16	1.16	19	11.3	–	11	–	0.605	–	–	–	–	–
c1ccc2c(c1)cc(CNCCCN1CCN(CCCNCc3cc4ccccc4c4ccccc34)CC1)c1ccccc12 [TCMDC-137914]	12	1.11	–	0.204	12	–	–	–	13.7	–	–	–	–	–	–
CC(=NNC(=S)NCCc1ccccn1)c1ccccn1 [TCMDC-137895]	>17	1.49	0.32	0.319	>17	> 25	–	–	–	1.5	1.5	–	–	–	–
N=C(N)Nc1nc(-c2ccc(NC(=O)Nc3cccc(-c4csc(NC(=N)N)n4)c3)cc2)cs1 [TCMDC-139559]	>17	1.43	–	1.01	>17	> 25	–	–	–	–	–	–	–	–	–
c1cc(C2=N[C@H]3CCCC[C@@H]3N2)ccc1OCCCOc1ccc(C2=N[C@@H]3CCCC[C@H]3N2)cc1 [TCMDC-137803]	>54	0.47	–	0.731	>54	> 25	0.467	–	–	–	–	–	–	–	–
CCCCN(CCCC)C(=NC(=N)NCc1ccc(Cl)c(Cl)c1)NCCCCCCNC(=NC(=N)NCc1ccc(Cl)c(Cl)c1)N(CCCC)CCCC [TCMDC-131821]	20	0.62	–	0.399	20	12.4	0.615	–	–	–	–	–	–	–	–
CCN(CC)C(=NCCCCCCN=C(NC(=N)c1ccc(Cl)cc1)N(CC)CC)NC(=N)c1ccc(Cl)cc1 [TCMDC-131806]	52	0.84	–	0.381	52	43.6	–	–	–	–	–	–	–	–	–
Cc1c(Cn2ncc(N3CCC(N)CC3)c(Cl)c2=O)cccc1NC(=O)Nc1ccc(-c2ccccc2)cc1 [TCMDC-141931]	12	1.18	–	0.697	12	14.5	1.18	–	–	–	–	–	–	–	–
COc1cc(CCNC(=N)/C=C/c2ccc(Cl)cc2)ccc1Cl [TCMDC-137457]	50	0.28	–	0.241	50	14	–	–	–	–	–	–	–	–	–
CCOc1ccc2nc3cc(NC(=O)c4ccco4)ccc3c(N)c2c1 [TCMDC-125004]	56	0.19	0.8	0.802	56	10.3	–	10	–	0.185	–	–	–	–	–
Nc1cc(C=Cc2ccc([N+](=O)[O-])o2)nc2ccccc12 [TCMDC-142295]	58	0.2	0.37	0.367	59	11.7	–	–	–	–	–	0.21	116	12	–
Oc1ccc(CCNCCCCCCNCCc2ccc(Cl)c3ccccc23)cc1O [TCMDC-131271]	25	0.53	–	0.716	25	13.5	0.533	–	–	–	–	–	–	–	–
CS(=O)(=O)c1cccc(-c2cnc3[nH]cc(-c4cccc(CCN)c4)c3c2)c1 [TCMDC-136307]	>53	0.47	1.56	1.56	>53	> 25	–	–	–	–	–	–	–	–	–
CC1CCCCN1CCCNc1nc(NCc2ccccc2)c2ccccc2n1 (centres unmarked) [TCMDC-137771]	143	0.14	0.95	0.953	143	20.1	–	20	–	–	–	–	–	–	–
CCN(CC)Cc1cc(Nc2c3ccc(Cl)cc3nc3cccc(OC)c23)ccc1O [TCMDC-139222]	>25	1	0.0334	0.033	>25	> 25	–	–	–	0.995	–	–	–	–	0.03
